Measured values from PMC6429262, “Design and Synthesis of Novel Anti-Proliferative Emodin Derivatives and Studies on their Cell Cycle Arrest, Apoptosis Pathway and Migration” (Molecules, 2019).

Assays:
MCF-7 cells = experiment: CellTiter-Glo Luminescent Cell Viability Assay, MCF-7; format: cell-based, human; settings: for IC50: MCF-7 cells, 48 h, mean of three independent experiments
Protocol: (§1) The in vitro anti-proliferative activities of all the novel synthesized compounds were evaluated against HepG2 cells and MCF-7 cells by CellTiter-Glo® Luminescent Cell Viability Assay, using paclitaxel (a clinically used drug) as a positive control. Emodin (1) and compound 2 were also included for comparison.
(§2) HepG2 cells and MCF-7 cells were purchased from American Type Culture Collection (ATCC, Manassas, VA, USA). Cells were cultured in T75 flask (430641, Corning, New York, NY, USA), supplemented with high-glucose DMEM medium (Dulbecco’s modified Eagle’s medium, 11965-092, Gibco, New York, NY, USA) containing 10% Fetal bovine serum (FBS) and 1% penicillin (100 units/mL)-streptomycin (100 µg/mL) in a humidified incubator at 37 °C under 5% CO2 and 95% relative humidity (RH) atmosphere. The cells were harvested for metabolomics experiments using cell scrapers.
(§3) HepG2 cells and MCF-7 cells in 40 µL DMEM supplemented with 10% FBS were seeded at a density of 500 cells/well in 384-well cell culture plate (3570, Corning), respectively. After 24 h, the medium was substituted with fresh medium containing various sample solutions in DMSO (0.5%, v/v) at a dose range of 0.14–100 µM with 3-fold serial dilutions, and cells were cultured for another 48 h. Cells were cultured in medium without samples but 0.5% DMSO served as a control. All measurements were determined in triplicate for each treatment. After the sample treatment for 48 h, 20 µL CellTiter-Glo (G7573, Promega, Fitchburg, WI, USA) was added to each well containing cells and the contents were mixed for 2 min on an orbital shaker to induce cell lysis. The plates were then incubated at room temperature for 20 min to stabilize the luminescent signal. The luminescence was recorded on an Envision 2014 (Perkin Elmer, Waltham, MA, UAS). The IC50 values represented the samples’ concentrations required to inhibit 50% of cell proliferation and were calculated from a calibration curve by linear regression using GraphPad Prism 7.0 software (GraphPad Software, San Diego, CA, USA).

HepG2 cells = experiment: CellTiter-Glo Luminescent Cell Viability Assay, HepG2; format: cell-based, human; settings: for IC50: HepG2 cells, 48 h, mean of three independent experiments
Protocol: as §1, §2, §3

L02 cells = experiment: Cytotoxic activity against human normal liver cells (L02); format: cell-based; settings: Homo sapiens, L02, human normal liver L02 cells

Row | Compound | IC50 (MCF-7 cells; Homo sapiens, MCF7, 48 h) | IC50 (HepG2 cells; Homo sapiens, HepG2, 48 h) | further results
1 | CN[C@H](C)C(=O)OCCOc1cc(O)c2c(c1)C(=O)c1cc(C)cc(O)c1C2=O [Compound 4a, (R)-1-(2-(4,5-Dihydroxy-7-methyl-9,10-dioxo-9,10-dihydroanthracen-2-yloxy)ethoxy)-N-methyl-1-oxo-propan-2-aminium 2,2,2-trifluoroacetate] | 23.2 ± 0.33 µM | 13.7 ± 0.89 µM | 
2 | CN[C@@H](C)C(=O)OCCOc1cc(O)c2c(c1)C(=O)c1cc(C)cc(O)c1C2=O.O=C(O)C(F)(F)F [Compound 4b, (S)-1-(2-(4,5-Dihydroxy-7-methyl-9,10-dioxo-9,10-dihydroanthracen-2-yloxy)ethoxy)-N-methyl-1-oxo-propan-2-aminium 2,2,2-trifluoroacetate] | 68.8 ± 2.25 µM | 40 ± 2.85 µM | activity reduction compared to emodin (1) (MCF-7 cells; MCF-7 cell lines): 6 fold
3 | Cc1cc(O)c2c(c1)C(=O)c1cc(OCCOC(=O)[C@@H](C)N(C)C)cc(O)c1C2=O [Compound 5a, (R)-1-(2-(4,5-Dihydroxy-7-methyl-9,10-dioxo-9,10-dihydroanthracen-2-yloxy)ethoxy)-N,N-dimethyl-1-oxo-propan-2-aminium 2,2,2-trifluoroacetate] | 25.2 ± 1.92 µM | 18.1 ± 2.79 µM | 
4 | Cc1cc(O)c2c(c1)C(=O)c1cc(OCCOC(=O)[C@H](C)N(C)C)cc(O)c1C2=O [Compound 5b, (S)-1-(2-(4,5-Dihydroxy-7-methyl-9,10-dioxo-9,10-dihydroanthracen-2-yloxy)ethoxy)-N,N-dimethyl-1-oxo-propan-2-aminium 2,2,2-trifluoroacetate] | 16.2 ± 0.67 µM | 18.6 ± 2.07 µM | 
5 | Cc1cc(O)c2c(c1)C(=O)c1cc(OCCCCOC(=O)[C@@H](C)N)cc(O)c1C2=O [Compound 7c, (R)-1-(4-(4,5-Dihydroxy-7-methyl-9,10-dioxo-9,10-dihydroanthracen-2-yloxy)butoxy)-1-oxopropan-2-aminium 2,2,2-trifluoroacetate] | 12.7 ± 0.55 µM | 11.4 ± 1.69 µM | 
6 | Cc1cc(O)c2c(c1)C(=O)c1cc(OCCCCOC(=O)[C@H](C)N)cc(O)c1C2=O [Compound 7d, (S)-1-(4-(4,5-Dihydroxy-7-methyl-9,10-dioxo-9,10-dihydroanthracen-2-yloxy)butoxy)-1-oxopropan-2-aminium 2,2,2-trifluoroacetate] | 14.9 ± 0.57 µM | 11 ± 1.47 µM | 
7 | Cc1cc(O)c2c(c1)C(=O)c1cc(OCCCCCOC(=O)[C@H](C)N)cc(O)c1C2=O [Compound 7f, (S)-1-(5-(4,5-Dihydroxy-7-methyl-9,10-dioxo-9,10-dihydroanthracen-2-yloxy)pentyloxy)-1-oxopropan-2-aminium 2,2,2-trifluoroacetate] | 15.8 ± 1.45 µM | 10.6 ± 0.97 µM | IC50 (L02 cells): 24.3 ± 0.68 µM
8 | Cc1cc(O)c2c(c1)C(=O)c1cc(OCCOCCOCCOC(=O)[C@@H](C)N)cc(O)c1C2=O [Compound 7i, (R)-1-(2-(2-(2-(4,5-Dihydroxy-7-methyl-9,10-dioxo-9,10-dihydroanthracen-2-yloxy)ethoxy)ethoxy)ethoxy)-1-oxopropan-2-aminium 2,2,2-trifluoroacetate] | 20.8 ± 1.87 µM | 28.7 ± 0.87 µM | 
9 | Cc1cc(O)c2c(c1)C(=O)c1cc(OCCOCCOCCOC(=O)[C@H](C)N)cc(O)c1C2=O [Compound 7j, (S)-1-(2-(2-(2-(4,5-Dihydroxy-7-methyl-9,10-dioxo-9,10-dihydroanthracen-2-yloxy)ethoxy)ethoxy)ethoxy)-1-oxopropan-2-aminium 2,2,2-trifluoroacetate] | 25.6 ± 0.58 µM | 31.9 ± 2.77 µM | 
10 | Cc1cc(O)c2c(c1)C(=O)c1cc(OCCOCCOCCOCCOC(=O)[C@@H](C)N)cc(O)c1C2=O [Compound 7k, (R)-1-(4,5-Dihydroxy-7-methyl-9,10-dioxo-9,10-dihydroanthracen-2-yloxy)-13-oxo-3,6,9,12-tetraoxapenta-decan-14-aminium 2,2,2-trifluoroacetate] | 37.8 ± 2.44 µM | 37.2 ± 2.44 µM | 
11 | Cc1cc(O)c2c(c1)C(=O)c1cc(OCCOCCOCCOCCOC(=O)[C@H](C)N)cc(O)c1C2=O [Compound 7l, (S)-1-(4,5-Dihydroxy-7-methyl-9,10-dioxo-9,10-dihydroanthracen-2-yloxy)-13-oxo-3,6,9,12-tetraoxa-pentadecan-14-aminium 2,2,2-trifluoroacetate] | 41.8 ± 2.24 µM | 60.6 ± 4.26 µM | 
12 | Cc1cc(O)c2c(c1)C(=O)c1cc(O)cc(O)c1C2=O [Emodin, 3-methyl-1,6,8-trihydroxyanthraquinone] | 52.7 ± 2.22 µM | 43.9 ± 1.28 µM | Selectivity Index MCF-7 (MCF-7 cells; IC50 on normal cells (L02)/IC50 on cancer cells (MCF-7)): 0.43; Selectivity Index HepG2 (HepG2 cells; IC50 on normal cells (L02)/IC50 on cancer cells (HepG2)): 0.51; IC50 (L02 cells): 22.52 ± 0.18 µM
13 | (S)-1-(2-(4,5-Dihydroxy-7-methyl-9,10-dioxo-9,10-dihydroanthracen-2-yloxy)ethoxy)-3-(4-hydroxyphenyl)-1-oxopropan-2-aminium 2,2,2-trifluoroacetate [Compound 3z] |  |  | IC50 (MCF-7 cells): 17.3 ± 0.26 µM; IC50 (HepG2 cells): 14.1 ± 1.22 µM

More lines, in order of falling IC50 (MCF-7 cells; Homo sapiens, MCF7, 48 h), values ahead:

Row | IC50 (MCF-7 cells; Homo sapiens, MCF7, 48 h) | IC50 (HepG2 cells; Homo sapiens, HepG2, 48 h) | Compound | further results
14 | 12.6 ± 0.46 µM | 15.2 ± 0.66 µM | Cc1cc(O)c2c(c1)C(=O)c1cc(OCCOCCOC(=O)[C@@H](C)N)cc(O)c1C2=O [Compound 7g, (R)-1-(2-(2-(4,5-Dihydroxy-7-methyl-9,10-dioxo-9,10-dihydroanthracen-2-yloxy)ethoxy)ethoxy)-1-oxo-propan-2-aminium 2,2,2-trifluoroacetate] | 
15 | 12.5 ± 0.44 µM | 11.4 ± 0.47 µM | Cc1cc(O)c2c(c1)C(=O)c1cc(OCCOCCOC(=O)[C@H](C)N)cc(O)c1C2=O [Compound 7h, (S)-1-(2-(2-(4,5-Dihydroxy-7-methyl-9,10-dioxo-9,10-dihydroanthracen-2-yloxy)ethoxy)ethoxy)-1-oxo-propan-2-aminium 2,2,2-trifluoroacetate] | 
16 | 10.2 ± 0.96 µM | 9.52 ± 0.22 µM | Cc1cc(O)c2c(c1)C(=O)c1cc(OCCOC(=O)[C@H](C)N)cc(O)c1C2=O [Compound 3c, (S)-1-(2-(4,5-Dihydroxy-7-methyl-9,10-dioxo-9,10-dihydroanthracen-2-yloxy)ethoxy)-1-oxopropan-2-aminium 2,2,2-trifluoroacetate] | IC50 (L02 cells): 37.3 ± 0.78 µM
17 | 9.11 ± 0.67 µM | 8.58 ± 0.77 µM | Cc1cc(O)c2c(c1)C(=O)c1cc(OCCCCCOC(=O)[C@@H](C)N)cc(O)c1C2=O [Compound 7e, (R)-1-(5-(4,5-Dihydroxy-7-methyl-9,10-dioxo-9,10-dihydroanthracen-2-yloxy)pentyloxy)-1-oxopropan-2-aminium 2,2,2-trifluoroacetate] | IC50 (L02 cells): 27.7 ± 0.54 µM
18 | 8.99 ± 0.64 µM | 8.22 ± 0.13 µM | Cc1cc(O)c2c(c1)C(=O)c1cc(OCCOC(=O)[C@@H](C)N)cc(O)c1C2=O [Compound 3b, (R)-1-(2-(4,5-Dihydroxy-7-methyl-9,10-dioxo-9,10-dihydroanthracen-2-yloxy)ethoxy)-1-oxopropan-2-aminium 2,2,2-trifluoroacetate] | IC50 (L02 cells): 33.6 ± 0.36 µM
19 | 6.47 ± 0.18 µM | 6.47 ± 0.21 µM | Cc1cc(O)c2c(c1)C(=O)c1cc(OCCCOC(=O)[C@H](C)N)cc(O)c1C2=O [Compound 7b, (S)-1-(3-(4,5-Dihydroxy-7-methyl-9,10-dioxo-9,10-dihydroanthracen-2-yloxy)propoxy)-1-oxopropan-2-aminium 2,2,2-trifluoroacetate] | 
20 | 4.89 ± 0.11 µM | 10.3 ± 0.26 µM | CC(=O)O[C@H]1C(=O)[C@@]2(C)[C@H]([C@H](OC(=O)c3ccccc3)[C@]3(O)C[C@H](OC(=O)[C@H](O)[C@@H](NC(=O)c4ccccc4)c4ccccc4)C(C)=C1C3(C)C)[C@]1(OC(C)=O)CO[C@@H]1C[C@@H]2O [Paclitaxel, reference compound] | 
